Assay results taken from ChEMBL document CHEMBL3351739, “Design, synthesis and biological evaluation of 6-(nitroimidazole-1H-alkyloxyl)-4-anilinoquinazolines as efficient EGFR inhibitors exerting cytotoxic effects both under normoxia and hypoxia” (Eur J Med Chem, 2015).

How the values were obtained:
[1] = target: Epidermal growth factor receptor (Homo sapiens, UniProt P00533); assay: Inhibition of wild type EGFR (unknown origin) by Z'-Lyte kinase assay
HT-29 [2] = assay: Cytotoxicity against human HT-29 cells after 72 hrs under normoxia conditions by SRB assay; type: functional, cell-based; conditions: HT-29, 72 h
HT-29 [3] = assay: Cytotoxicity against human HT-29 cells after 72 hrs under hypoxia conditions by SRB assay; type: functional, cell-based; conditions: HT-29, 72 h
[4] = Reductive drug activation assessed as reactive radical formation at 4.1 umol in pH 7.4 PBS in presence of zinc dust and ammonium chloride by HPLC-Q-ToF-MS method; conditions: buffer
[5] = Metabolic stability in mouse liver microsomes assessed as compound remaining at 5 uM after 30 mins under normoxia conditions in presence of NADPH by HPLC method; type: ADME; conditions: read-out: Stability
[6] = Metabolic stability in mouse liver microsomes assessed as compound remaining at 5 uM after 30 mins under hypoxia conditions in presence of NADPH by HPLC method; type: ADME; conditions: read-out: Stability

Sequence of Epidermal growth factor receptor (P00533 whole entry): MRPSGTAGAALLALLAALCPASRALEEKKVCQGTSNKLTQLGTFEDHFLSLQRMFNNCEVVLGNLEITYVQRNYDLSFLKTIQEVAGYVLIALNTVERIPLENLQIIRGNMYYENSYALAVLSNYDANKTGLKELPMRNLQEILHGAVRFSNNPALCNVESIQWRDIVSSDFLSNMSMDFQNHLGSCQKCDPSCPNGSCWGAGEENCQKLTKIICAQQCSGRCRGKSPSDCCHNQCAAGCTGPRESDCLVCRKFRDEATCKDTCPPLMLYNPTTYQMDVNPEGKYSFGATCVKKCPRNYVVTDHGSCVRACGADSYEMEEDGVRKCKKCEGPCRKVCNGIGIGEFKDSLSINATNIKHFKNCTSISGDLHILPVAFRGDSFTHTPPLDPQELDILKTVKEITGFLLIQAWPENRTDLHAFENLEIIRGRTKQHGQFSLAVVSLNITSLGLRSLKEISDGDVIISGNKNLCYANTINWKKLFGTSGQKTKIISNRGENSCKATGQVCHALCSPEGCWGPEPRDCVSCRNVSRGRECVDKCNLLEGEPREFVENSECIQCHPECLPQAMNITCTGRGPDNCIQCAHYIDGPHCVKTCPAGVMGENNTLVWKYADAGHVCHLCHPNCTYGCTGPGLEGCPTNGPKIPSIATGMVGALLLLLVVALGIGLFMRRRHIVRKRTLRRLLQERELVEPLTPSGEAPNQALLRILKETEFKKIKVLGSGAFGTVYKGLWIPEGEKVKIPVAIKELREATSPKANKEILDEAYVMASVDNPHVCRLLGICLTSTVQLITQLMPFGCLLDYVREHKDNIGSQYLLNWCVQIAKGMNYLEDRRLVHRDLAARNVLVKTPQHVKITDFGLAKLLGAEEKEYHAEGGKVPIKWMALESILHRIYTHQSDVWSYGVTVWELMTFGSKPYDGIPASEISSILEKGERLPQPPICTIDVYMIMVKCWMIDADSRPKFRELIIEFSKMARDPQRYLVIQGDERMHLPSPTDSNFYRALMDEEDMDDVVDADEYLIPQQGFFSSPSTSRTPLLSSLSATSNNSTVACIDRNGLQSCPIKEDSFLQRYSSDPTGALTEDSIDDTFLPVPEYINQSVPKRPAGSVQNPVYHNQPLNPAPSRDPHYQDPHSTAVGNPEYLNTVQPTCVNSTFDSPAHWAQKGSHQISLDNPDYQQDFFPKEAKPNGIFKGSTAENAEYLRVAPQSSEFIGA

| SMILES | IC50 [1] [nM] | IC50 (HT-29 [2]) [µM] | IC50 (HT-29 [3]) [µM] | Drug metabolism [4] | remaining at 0.5 h, 5 µM [5] [%] | remaining at 0.5 h, 5 µM [6] [%] |
| --- | --- | --- | --- | --- | --- | --- |
| COc1cc2ncnc(Nc3ccc(F)c(Cl)c3)c2cc1OCCn1ccnc1[N+](=O)[O-] | 3.05 | > 50 | 10 | – | – | – |
| COc1cc2ncnc(Nc3ccc(F)c(Cl)c3)c2cc1OCCCn1ccnc1[N+](=O)[O-] | 0.89 | 8.39 | 7.17 | – | – | – |
| COc1cc2ncnc(Nc3ccc(F)c(Cl)c3)c2cc1OCCCCn1ccnc1[N+](=O)[O-] | 0.47 | 2.21 | 1.62 | metabolite_detected | 70 | < 10 |
| COc1cc2ncnc(Nc3ccc(F)c(Cl)c3)c2cc1OCCCCCn1ccnc1[N+](=O)[O-] | 0.51 | 17.6 | 5.59 | – | – | – |
| COc1cc2ncnc(Nc3ccc(F)c(Cl)c3)c2cc1OCCCCCCn1ccnc1[N+](=O)[O-] | – | 12.9 | 9.81 | – | – | – |
| COc1cc2ncnc(Nc3cccc(Br)c3)c2cc1OCCCn1ccnc1[N+](=O)[O-] | 0.66 | 4.48 | 4.01 | – | – | – |
| C#Cc1cccc(Nc2ncnc3cc(OC)c(OCCCn4ccnc4[N+](=O)[O-])cc23)c1 | 1.08 | 5.55 | 5.53 | – | – | – |
| C#Cc1cccc(Nc2ncnc3cc(OC)c(OCCCCn4ccnc4[N+](=O)[O-])cc23)c1 | 0.56 | 10.1 | 6.9 | – | – | – |
| C#Cc1cccc(Nc2ncnc3cc(OC)c(OCCCCCn4ccnc4[N+](=O)[O-])cc23)c1 | 0.49 | 3.55 | 3.05 | – | – | – |
| C#Cc1cccc(Nc2ncnc3cc(OC)c(OCCCCCCn4ccnc4[N+](=O)[O-])cc23)c1 | 0.5 | 2.93 | 3.46 | – | – | – |
| COc1cc2ncnc(Nc3ccc(OCc4cccc(F)c4)c(Cl)c3)c2cc1OCCCn1ccnc1[N+](=O)[O-] | 38.3 | 15.5 | 20 | – | – | – |
| COc1cc2ncnc(Nc3ccc(OCc4cccc(F)c4)c(Cl)c3)c2cc1OCCCCn1ccnc1[N+](=O)[O-] | 28.5 | 1.87 | 2.07 | – | – | – |
| COc1cc2ncnc(Nc3ccc(OCc4cccc(F)c4)c(Cl)c3)c2cc1OCCCCCn1ccnc1[N+](=O)[O-] | 51.2 | 3.09 | 1.36 | – | – | – |
| COc1cc2ncnc(Nc3ccc(OCc4cccc(F)c4)c(Cl)c3)c2cc1OCCCCCCn1ccnc1[N+](=O)[O-] | 15.1 | > 50 | 24.3 | – | – | – |
| COc1cc2ncnc(Nc3ccc(F)c(Cl)c3)c2cc1OCCn1c([N+](=O)[O-])cnc1C | 4.9 | > 50 | > 50 | – | – | – |
| COc1cc2ncnc(Nc3ccc(F)c(Cl)c3)c2cc1OCCCn1c([N+](=O)[O-])cnc1C | 3.43 | 23.2 | 11.5 | – | – | – |
| COc1cc2ncnc(Nc3ccc(F)c(Cl)c3)c2cc1OCCCCn1c([N+](=O)[O-])cnc1C | 0.53 | 8.21 | 9.98 | – | – | – |
| COc1cc2ncnc(Nc3cccc(Br)c3)c2cc1OCCCn1c([N+](=O)[O-])cnc1C | 1.18 | 15.7 | 5.41 | – | – | – |
| COc1cc2ncnc(Nc3ccc(F)c(Cl)c3)c2cc1OCCCN1CCOCC1 [GEFITINIB] | – | – | – | – | > 90 | > 90 |
| Nc1n[n+]([O-])c2ccccc2[n+]1[O-] [TIRAPAZAMINE] | – | > 50 | 9.45 | – | – | – |
